Literature values as cited in patent US20190203207A1, “Anabolic Enhancers for Ameliorating Neurodegeneration” (priority 2016, published 2019).
Entries after “also recorded” stand apart in the source; their conditions may differ.

System: insulin/mTOR signaling pathway

In the case of insulin, the “GLUT1 and HIF1a levels” value (insulin injection, four RP mouse models) is given as “increased levels” and the “Cone survival / cone degeneration” value (systemic insulin, four RP mouse models (Punzo et al.)) is given as “encouraged cone survival; also recorded: delay degeneration of cones”.
